Source: patent US12422369B2, “Immunosensor” (PPB Technology Pty Ltd, priority 2019, dated 2025)
Several values for one entry are separate records, joined by “and”; a condition that tells them apart may be missing. Equal entries are not always repeated. Blank lines part the entries; values can stand above or below the molecule they belong to.

Key:
T9NB1-RLuc8 = test: BRET^2 competitive assay for TCC with nanobody sensor T9NB1-RLuc8/TCC-4′-S—(CH2)2—CO-GFP^2; type: binding, camelid; details: 10 nM T9NB1-RLuc8 and 10 nM TCC-4′-S—(CH2)2—CO-GFP^2, 2% DMSO/PBS, 5 minutes at 22° C.
Method: Instrumentation: Simultaneous dual emission BRET measurements were carried out with a CLARIOstar microplate reader (BMG LabTech). BRET^2 measurements used the BRET^2 emission filter set comprising RLuc/CLZ400a emission filter (410 nm bandpass, 80 nm) and the GFP^2 emission filter (515 nm bandpass, 30 nm). BRET^2 ratios were calculated as ratios of integrated acceptor emission channel intensity to integrated donor emission channel intensity.
BRET^2 assay: All reactions were carried out in white 96-well plates (Perkin-Elmer, Australia). A final concentration of 10 nM of T9NB1-RLuc8 and 10 nM of TCC-4′-S—(CH2)2—CO-GFP^2 were used for all assays, in a final volume of 100 μL 2% DMSO in PBS.
To construct a calibration curve, 10 nM of T9NB1-RLuc8 and 10 nM of TCC-4′-S—(CH2)2—CO-GFP^2 were incubated for 5 minutes at 22° C. with a range of different final concentrations of TCC, namely 1, 3, 6.3, 12.5, 25, 50, 100 and 200 nM, added from a stock of TCC in DMSO or DMSO only (2% final concentration in PBS). At the end of the incubation time, 1 μL of coelenterazine 400a (1 mM stock) in EtOH was added to the reaction mixture (final [CLZ400a]=10 μM) and the luminescence intensities recorded immediately. The BRET^2 ratios were calculated and are presented as a function of the concentration of TCC in FIG. 8. […]

Anti-FLAG mAb [1] = test: Competitive BRET binding assay for FLAG peptide, antibody-12/36-RLuc8 conjugate, Fluorostar plate-reader; details: mAb-12/36-RLuc8 50 nM, 200 nM FLAG-GFP^2, Fluorostar
Method: In order to determine whether the immunosensors of the present invention can be used to detect and measure the concentration of an analyte, the antibody-12/36-RLuc8 conjugate was incubated with 200 nM FLAG-GFP^2 and varying concentrations of FLAG peptide (from 256 μM to less than 0.5 nM) for 5 minutes before coelenterazine 400a was added and the BRET ratio determined using the Fluorostar plate-reader as described in Example 9. The BRET ratios were plotted against Log [FLAG] values.

Anti-FLAG mAb [2] = test: Competitive BRET calibration for FLAG peptide, mAb-24/36-RLuc8 conjugate, Clariostar plate-reader; type: binding; details: 5 nM mAb-24/36-RLuc8, 10 nM FLAG-GFP^2, 5 minute incubation
Method: A calibration was also performed using the Clariostar plate-reader (BMG) and the antibody-24/36-RLuc8 conjugate. Measurements were made in the bioluminescence mode and the dual linear variable filters were set to 410-80 (Gain: 3300) for RLuc8 emission and 515-30 (Gain: 4095) for GFP^2 emission. An integration time of 1.54 s was used. Coelenterazine 400a was prepared by adding 100 μL ethanol to a dried aliquot (0.5 mM), with 1 μL added to the final assay to give a final concentration of 5 μM. A final concentration of 5 nM of RLuc8-conjugate and 10 nM GFP^2-FLAG was used for assays. The final assay volume was 100 μL with PBS (with BSA (1 mg/ml) used to make up the volume.
To construct a standard curve using the Clariostar, 5 nM mAb-24/36-RLuc8 conjugate was added to 10 nM FLAG-GFP^2 in PBS with BSA (1 mg/mL) and the mixture incubated with unlabelled FLAG peptide (various concentrations) for 5 minutes at 28° C. Coelenterazine 400a was added and the BRET response determined. BRET ratio was calculated by dividing the GFP^2 intensity (average 0-13.86 s) by the RLuc8 intensity (average 0-13.86 s). The BRET ratios were normalised using the normalisation function in Graphpad Prism 7 for Windows, plotted against Log [FLAG] values and fitted with a Log [Agonist] vs normalized response—variable slope model.

[3] = Luciferase activity with Coelenterazine 400a; type: biochemical
Method: Luciferase activity: Coelenterazine 400a (Cayman Chemicals) (6-phenyl-2,8-bis(phenylmethyl)-imidazo[1,2-a]pyrazin-3(7H)-one) (1 mg) was dissolved in 10.2 mL ethanol and partitioned into 200 μL aliquots which were dried (Speedivac) and stored at −20° C. until use.
Coelenterazine 400a (50 nmol) was dissolved in 50 μL ethanol and 450 μL water was added. RLuc8 monomer (2.4 mg/mL) and RLuc8 dimer (4.8 mg/mL) were diluted in 1 mg/mL BSA in buffer. In a well of a white 96-well Optiplate (Perkin Elmer) was added TBS, PBS or 100 mM sodium phosphate pH 7.0, 2 μL luciferase enzyme (1/10 or 1/100 dilution) and 5 μL of 0.1 mM Coelenterazine 400a solution. The final volume in each well was 100 μL. The light produced was measured in a FLUOstar Optima (BMG Labtech) using luminescence optics and no filter.

EC50 (T9NB1-RLuc8): 17.3 nM and 17 nM
Molecule: O=C(Nc1ccc(Cl)cc1)Nc1ccc(Cl)c(Cl)c1 [TCC, triclocarban]

EC50 (Anti-FLAG mAb [1]): 274 nM | EC50 (Anti-FLAG mAb [2]): 1.41 nM
Molecule: DYKDDDDK [FLAG peptide]

Luciferase activity, monomer versus dimer ([3]; Coelenterazine 400a, FLUOstar Optima, no filter): more active than the dimeric form
B1: N-His-RLuc8: N-terminal hexahistidine tagged Renilla reniformis luciferase RLuc8-LPETGG, SEQ ID NO: 5 (protein)
chain: MGHHHHHHGTENLYFQGSASKVYDPEQRKRMITGPQWWARCKQMNVLDSFINYYDSEKHAENAVIFLHGNATSSYLWRHVVPHIEPVARCIIPDLIGMGKSGKSGNGSYRLLDHYKYLTAWFELLNLPKKIIFVGHDWGAALAFHYAYEHQDRIKAIVHMESVVDVIESWDEWPDIEEDIALIKSEEGEKMVLENNFFVETVLPSKIMRKLEPEEFAAYLEPFKEKGEVRRPTLSWPREIPLVKGGKPDVVQIVRNYNAYLRASDDLPKLFIESDPGFFSNAIVEGAKKFPNTEFVKVKGLHFLQEDAPDEMGKYIKSFVERVLKNEQLPETGGAALEAS
modifications: N-His-RLuc8
Luciferase activity over time ([3]; after Coelenterazine 400a addition, data not shown): decreased very rapidly (over a few seconds)
